Measured values taken from ChEMBL document CHEMBL3588827, “A new class of ghrelin O-acyltransferase inhibitors incorporating triazole-linked lipid mimetic groups” (Bioorg Med Chem Lett, 2015).
pIC50: −log10 of the molar value.

target: T1, Membrane-bound ghrelin O-acyltransferase MBOAT4 (Homo sapiens, UniProt Q96T53); assay: Inhibition of human GOAT octanoylation activity expressed in insect Sf9 cell membranes using GSSFLCAcDan as substrate after 1 hr by reverse phase HPLC with fluorescence detection method
T1 sequence (Q96T53 whole entry): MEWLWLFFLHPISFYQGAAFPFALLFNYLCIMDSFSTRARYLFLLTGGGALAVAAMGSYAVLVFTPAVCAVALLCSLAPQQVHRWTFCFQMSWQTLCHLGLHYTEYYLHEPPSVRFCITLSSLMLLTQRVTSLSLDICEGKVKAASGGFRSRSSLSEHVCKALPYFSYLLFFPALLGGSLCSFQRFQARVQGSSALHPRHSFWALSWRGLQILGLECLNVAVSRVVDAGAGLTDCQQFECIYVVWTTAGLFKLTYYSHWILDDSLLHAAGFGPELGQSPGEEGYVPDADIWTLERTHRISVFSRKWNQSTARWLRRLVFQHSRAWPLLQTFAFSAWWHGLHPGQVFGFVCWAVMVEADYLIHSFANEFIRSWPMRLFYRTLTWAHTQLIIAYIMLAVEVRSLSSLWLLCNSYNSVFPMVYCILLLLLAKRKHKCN

Going from `CC(C)C[C@H](NC(=O)[C@H](Cc1ccccc1)NC(=O)[C@H](Cn1cc(Cc2ccccc2)nn1)NC(=O)[C@H](CO)NC(=O)CN)C(N)=O` to `CC(C)C[C@H](NC(=O)[C@H](Cc1ccccc1)NC(=O)[C@H](Cn1cc(CCc2ccccc2)nn1)NC(=O)[C@H](CO)NC(=O)CN)C(N)=O`, the pIC50 rises from 5.22 to 5.42 (0.20 log units). The second is the more potent here.

Compared with `CC(C)C[C@H](NC(=O)[C@H](Cc1ccccc1)NC(=O)[C@H](Cn1cc(CCCc2ccccc2)nn1)NC(=O)[C@H](CO)NC(=O)CN)C(N)=O`, `CC(C)C[C@H](NC(=O)[C@H](Cc1ccccc1)NC(=O)[C@H](Cn1cc(CCCCc2ccccc2)nn1)NC(=O)[C@H](CO)NC(=O)CN)C(N)=O` is lower in pIC50: 6.15 for the first, under 6.00 for the second.
